The results in this text go back to ChEMBL document CHEMBL4033685, “C21-steroidal pregnane sapogenins and their derivatives as anti-inflammatory agents” (Bioorg Med Chem, 2017).

For data set [1], the target named is Toll-like receptor 3 (Homo sapiens) (UniProt O15455). Nature of the data set: Antagonist activity at TLR3 in human THP1 cells assessed as inhibition of poly IC-stimulated IL-1beta level at 10 uM by bead based immunoassay. Format: cell-based.
Data set [2] deals with T1, Toll-like receptor 4 (Homo sapiens, UniProt O00206). Description: Antagonist activity at TLR4 in human THP1 cells assessed as inhibition of LPS-stimulated NF-kB non-canonical signaling pathway by measuring decrease in RelB expression at 10 uM after 3 hrs by Western blot analysis. The data set is classed as cell-based.
Data set [3] has as its target Toll-like receptor 2 (Homo sapiens) (UniProt O60603). Nature of the data set: Antagonist activity at TLR2 in human THP1 cells assessed as inhibition of PGN-stimulated TNFalpha level at 10 uM by bead based immunoassay. The data set is classed as cell-based.
In data set [4] the target is T1, Toll-like receptor 4. Description: Antagonist activity at TLR4 in human THP1 cells assessed as inhibition of LPS-stimulated NF-kB non-canonical signaling pathway by measuring decrease in p100 phosphorylation at 10 uM after 3 hrs by Western blot analysis. Format: cell-based.
Data set [5] deals with THP-1. Nature of the data set: Upregulation of IKKalpha protein expression in LPS-stimulated human THP1 cells at 10 uM after 3 hrs by Western blot analysis. The data set is classed as functional, cell-based.
In data set [6] the target is T1, Toll-like receptor 4. Nature of the data set: Antagonist activity at TLR4 in human THP1 cells assessed as inhibition of LPS-stimulated TNFalpha level at 10 uM by bead based immunoassay. The data set is classed as cell-based.
The test system of data set [7] is AD293. Description: Cytotoxicity against human AD293 cells assessed as reduction in cell viability after 24 hrs by methylene blue dye based spectrophotometric method. Particulars: ad293, 24 h.
For data set [8], the target named is T1, Toll-like receptor 4. Description: Antagonist activity at TLR4 in human THP1 cells harboring human TRAF6 assessed as inhibition of LPS-stimulated TNFalpha level at 10 uM by bead based immunoassay. Format: cell-based.
Data set [9] relates to THP-1. Description: Effect on RelB protein expression in human THP1 cells at 10 uM after 3 hrs by Western blot analysis. Format: functional, cell-based.
Data set [10] addresses T2, Nuclear factor NF-kappa-B p100 subunit (Homo sapiens) (UniProt Q00653).
T2 sequence (whole entry): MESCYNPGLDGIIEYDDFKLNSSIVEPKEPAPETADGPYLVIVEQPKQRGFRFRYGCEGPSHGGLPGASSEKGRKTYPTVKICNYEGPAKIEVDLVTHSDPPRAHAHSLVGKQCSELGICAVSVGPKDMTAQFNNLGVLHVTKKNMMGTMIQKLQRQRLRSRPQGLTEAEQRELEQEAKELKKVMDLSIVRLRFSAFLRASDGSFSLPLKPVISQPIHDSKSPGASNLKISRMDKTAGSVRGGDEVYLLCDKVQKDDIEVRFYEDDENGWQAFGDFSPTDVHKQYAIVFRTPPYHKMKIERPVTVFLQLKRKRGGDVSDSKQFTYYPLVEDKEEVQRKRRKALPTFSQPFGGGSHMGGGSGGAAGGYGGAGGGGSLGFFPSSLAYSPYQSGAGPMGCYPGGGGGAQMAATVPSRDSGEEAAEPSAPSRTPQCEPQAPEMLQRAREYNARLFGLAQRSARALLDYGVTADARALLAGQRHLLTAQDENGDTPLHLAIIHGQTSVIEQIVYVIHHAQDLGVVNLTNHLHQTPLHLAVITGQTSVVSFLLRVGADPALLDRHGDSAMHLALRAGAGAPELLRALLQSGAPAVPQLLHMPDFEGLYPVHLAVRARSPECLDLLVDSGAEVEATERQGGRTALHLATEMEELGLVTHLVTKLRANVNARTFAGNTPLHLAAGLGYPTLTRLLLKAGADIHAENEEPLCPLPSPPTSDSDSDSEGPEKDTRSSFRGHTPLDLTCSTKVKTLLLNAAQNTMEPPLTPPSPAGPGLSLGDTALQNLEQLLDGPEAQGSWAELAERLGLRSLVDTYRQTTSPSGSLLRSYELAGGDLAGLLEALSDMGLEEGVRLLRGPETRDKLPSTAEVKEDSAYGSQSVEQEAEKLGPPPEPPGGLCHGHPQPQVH
Nature of the data set: Effect on p100 phosphorylation in human THP1 cells at 10 uM after 3 hrs by Western blot analysis. Format: cell-based.

For data set [11], the system named is AD293. Nature of the data set: Effect on IkBalpha protein expression in TNFalpha-stimulated human AD293 cells at 10 uM after 3 hrs by Western blot analysis. Format: functional, cell-based.
The target in data set [12] is Transcription factor p65 (Homo sapiens) (UniProt Q04206). Nature of the data set: Inhibition of TNFalpha-stimulated NF-kB p65 activation (unknown origin) expressed in human AD293 cells assessed as nuclear translocation of p65 at 10 uM after 3 hrs by confocal microscopic method. Format: cell-based.
Data set [13] concerns the target T1, Toll-like receptor 4. Nature of the data set: Antagonist activity at TLR4 in human THP1 cells assessed as inhibition of LPS-stimulated NF-kB non-canonical signaling pathway by measuring decrease in p100/p52 phosphorylation at 10 uM after 3 hrs by Western blot analysis. Format: cell-based.
Data set [14] deals with T3, NF-kappa-B inhibitor alpha (Homo sapiens) (UniProt P25963).
T3 sequence (whole entry): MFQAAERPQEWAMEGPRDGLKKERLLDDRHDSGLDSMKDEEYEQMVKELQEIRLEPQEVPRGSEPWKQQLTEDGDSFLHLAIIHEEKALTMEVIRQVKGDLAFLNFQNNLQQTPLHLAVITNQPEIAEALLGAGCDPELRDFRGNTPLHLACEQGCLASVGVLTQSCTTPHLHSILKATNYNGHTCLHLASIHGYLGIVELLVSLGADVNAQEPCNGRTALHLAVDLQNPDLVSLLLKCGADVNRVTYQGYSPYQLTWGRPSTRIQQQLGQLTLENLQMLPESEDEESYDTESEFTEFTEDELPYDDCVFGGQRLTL
Description: Inhibition of TNFalpha-stimulated IkBalpha phosphorylation in human AD293 cells at 10 uM after 3 hrs by Western blot analysis. The data set is classed as cell-based.

Data set [15] deals with THP-1. Nature of the data set: Upregulation of IKKalpha protein expression in human THP1 cells at 10 uM after 3 hrs by Western blot analysis. Format: functional, cell-based.
The target in data set [16] is T1, Toll-like receptor 4. Nature of the data set: Antagonist activity at TLR4 in human THP1 cells assessed as inhibition of LPS-stimulated IL-6 level at 10 uM by bead based immunoassay. The data set is classed as cell-based.
Data set [17] addresses T2, Nuclear factor NF-kappa-B p100 subunit (Homo sapiens). Description: Effect on p100/p52 phosphorylation in human THP1 cells at 10 uM after 3 hrs by Western blot analysis. The data set is classed as cell-based.
The target of data set [18] is Toll-like receptor 2 (Homo sapiens) (UniProt O60603). Nature of the data set: Antagonist activity at TLR2 in human THP1 cells assessed as inhibition of PGN-stimulated IL-1beta level at 10 uM by bead based immunoassay. Format: cell-based.
Data set [19] deals with T1, Toll-like receptor 4. Description: Antagonist activity at TLR4 in human THP1 cells assessed as inhibition of LPS-stimulated IL-1beta level at 10 uM by bead based immunoassay. The data set is classed as cell-based.
Data set [20] deals with AD293. Nature of the data set: Upregulation of IKKalpha protein expression in human AD293 cells at 10 uM after 3 hrs by Western blot analysis. Format: functional, cell-based.
Data set [21] deals with AD293. Description: Upregulation of IKKalpha protein expression in TNFalpha-stimulated human AD293 cells at 10 uM after 3 hrs by Western blot analysis. The data set is classed as functional, cell-based.
The target of data set [22] is T1, Toll-like receptor 4. Description: Antagonist activity at TLR4 in human THP1 cells harboring human TRAF6 assessed as inhibition of LPS-stimulated IL-1beta level at 10 uM by bead based immunoassay. Format: cell-based.
The target in data set [23] is Transcription factor p65 (Homo sapiens) (UniProt Q04206). Description: Inhibition of TNFalpha-stimulated NF-kB p65 phosphorylation (unknown origin) expressed in human AD293 cells at 10 uM after 3 hrs by Western blot analysis. Format: cell-based.

Molecules are shown by their SMILES. Calls of active or inactive are those of the source. The rule behind the calls is not given here.

Chain of Toll-like receptor 2 (Homo sapiens) (O60603 whole entry): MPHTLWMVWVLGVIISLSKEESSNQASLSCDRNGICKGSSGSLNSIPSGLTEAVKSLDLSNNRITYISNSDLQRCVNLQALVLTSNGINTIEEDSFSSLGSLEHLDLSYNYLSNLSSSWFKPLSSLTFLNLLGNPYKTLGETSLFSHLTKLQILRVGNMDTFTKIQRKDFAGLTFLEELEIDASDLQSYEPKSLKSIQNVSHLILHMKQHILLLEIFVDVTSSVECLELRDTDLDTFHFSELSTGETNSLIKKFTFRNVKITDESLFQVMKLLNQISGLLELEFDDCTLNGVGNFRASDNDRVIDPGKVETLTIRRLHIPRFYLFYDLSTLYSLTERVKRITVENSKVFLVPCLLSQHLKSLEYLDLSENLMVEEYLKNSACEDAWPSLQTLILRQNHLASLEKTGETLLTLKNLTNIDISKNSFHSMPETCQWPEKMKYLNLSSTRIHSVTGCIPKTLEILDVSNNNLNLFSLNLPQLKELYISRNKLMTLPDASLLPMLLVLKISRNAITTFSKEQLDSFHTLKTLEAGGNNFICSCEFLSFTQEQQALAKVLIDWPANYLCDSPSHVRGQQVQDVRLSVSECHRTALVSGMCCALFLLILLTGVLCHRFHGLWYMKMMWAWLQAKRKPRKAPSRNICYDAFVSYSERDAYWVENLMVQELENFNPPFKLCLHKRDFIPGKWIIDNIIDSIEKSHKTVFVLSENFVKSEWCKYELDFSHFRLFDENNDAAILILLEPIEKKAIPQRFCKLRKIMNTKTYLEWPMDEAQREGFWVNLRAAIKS
T1 sequence (O00206 whole entry): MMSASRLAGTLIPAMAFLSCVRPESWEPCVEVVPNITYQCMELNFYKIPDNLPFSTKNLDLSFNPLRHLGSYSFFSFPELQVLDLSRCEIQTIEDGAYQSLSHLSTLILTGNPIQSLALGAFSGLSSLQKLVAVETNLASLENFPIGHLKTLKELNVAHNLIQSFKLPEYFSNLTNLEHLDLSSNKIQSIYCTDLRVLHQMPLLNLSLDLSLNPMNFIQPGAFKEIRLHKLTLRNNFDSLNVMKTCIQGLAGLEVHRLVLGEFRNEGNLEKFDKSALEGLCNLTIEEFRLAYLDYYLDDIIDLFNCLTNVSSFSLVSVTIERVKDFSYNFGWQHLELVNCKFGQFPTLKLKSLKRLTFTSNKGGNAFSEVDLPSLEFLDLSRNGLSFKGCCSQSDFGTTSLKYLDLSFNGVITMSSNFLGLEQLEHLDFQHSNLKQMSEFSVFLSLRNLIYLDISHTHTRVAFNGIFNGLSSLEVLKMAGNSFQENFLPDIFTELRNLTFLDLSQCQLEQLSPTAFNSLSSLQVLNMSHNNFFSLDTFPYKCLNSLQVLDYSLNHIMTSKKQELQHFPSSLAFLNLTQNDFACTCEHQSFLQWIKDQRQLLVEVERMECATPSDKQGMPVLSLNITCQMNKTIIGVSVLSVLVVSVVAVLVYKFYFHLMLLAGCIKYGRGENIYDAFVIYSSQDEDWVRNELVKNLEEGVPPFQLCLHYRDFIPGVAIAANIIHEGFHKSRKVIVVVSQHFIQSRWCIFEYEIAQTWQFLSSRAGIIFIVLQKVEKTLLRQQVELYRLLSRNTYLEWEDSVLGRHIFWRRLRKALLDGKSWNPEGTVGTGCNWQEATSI
Chain of Transcription factor p65 (Homo sapiens) (Q04206 whole entry): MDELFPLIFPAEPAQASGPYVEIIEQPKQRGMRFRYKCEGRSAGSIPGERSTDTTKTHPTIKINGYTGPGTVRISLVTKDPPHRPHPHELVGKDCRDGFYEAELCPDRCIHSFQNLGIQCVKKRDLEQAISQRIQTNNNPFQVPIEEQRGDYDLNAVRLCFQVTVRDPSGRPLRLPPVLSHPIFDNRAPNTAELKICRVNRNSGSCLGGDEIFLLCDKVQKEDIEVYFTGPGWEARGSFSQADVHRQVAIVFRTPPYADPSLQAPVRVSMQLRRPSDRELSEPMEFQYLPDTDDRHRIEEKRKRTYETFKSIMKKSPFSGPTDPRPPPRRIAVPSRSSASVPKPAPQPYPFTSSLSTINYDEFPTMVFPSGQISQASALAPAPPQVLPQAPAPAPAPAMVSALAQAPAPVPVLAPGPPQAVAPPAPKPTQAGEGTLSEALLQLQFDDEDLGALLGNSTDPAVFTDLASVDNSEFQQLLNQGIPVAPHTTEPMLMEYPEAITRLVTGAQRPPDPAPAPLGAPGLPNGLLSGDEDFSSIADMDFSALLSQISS
Chain of Toll-like receptor 3 (Homo sapiens) (O15455 whole entry): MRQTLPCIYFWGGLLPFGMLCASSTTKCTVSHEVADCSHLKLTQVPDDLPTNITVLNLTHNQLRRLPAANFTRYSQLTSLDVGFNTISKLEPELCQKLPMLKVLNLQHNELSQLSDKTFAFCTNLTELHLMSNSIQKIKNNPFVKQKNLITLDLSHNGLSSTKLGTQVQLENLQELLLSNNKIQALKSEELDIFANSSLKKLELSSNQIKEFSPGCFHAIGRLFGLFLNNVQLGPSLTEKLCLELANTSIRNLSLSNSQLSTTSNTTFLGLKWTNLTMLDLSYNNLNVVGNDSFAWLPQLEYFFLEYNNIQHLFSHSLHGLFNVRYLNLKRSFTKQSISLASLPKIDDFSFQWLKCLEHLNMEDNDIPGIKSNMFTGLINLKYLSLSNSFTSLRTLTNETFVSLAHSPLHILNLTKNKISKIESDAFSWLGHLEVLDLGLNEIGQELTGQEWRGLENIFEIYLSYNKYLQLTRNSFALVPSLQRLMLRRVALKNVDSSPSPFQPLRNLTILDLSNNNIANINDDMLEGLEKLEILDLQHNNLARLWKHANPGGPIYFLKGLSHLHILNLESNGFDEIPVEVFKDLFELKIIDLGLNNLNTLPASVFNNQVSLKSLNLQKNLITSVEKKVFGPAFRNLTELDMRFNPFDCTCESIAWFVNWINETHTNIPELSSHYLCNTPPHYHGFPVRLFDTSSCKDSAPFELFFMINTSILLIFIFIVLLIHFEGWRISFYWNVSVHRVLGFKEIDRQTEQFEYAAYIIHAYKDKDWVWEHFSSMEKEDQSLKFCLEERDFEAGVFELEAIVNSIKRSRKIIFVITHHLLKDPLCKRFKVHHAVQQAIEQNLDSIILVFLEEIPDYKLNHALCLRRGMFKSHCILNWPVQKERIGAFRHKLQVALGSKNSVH

For `CC(=O)[C@]1(O)CC[C@@]2(O)[C@]1(C)[C@H](OC(=O)c1ccc(O)cc1)C[C@@H]1[C@@]3(C)CC[C@H](OC(=O)CCl)CC3=CC[C@]12O`, the inhibition entry in data set [1], in data set [3], in data set [6], in [16], in data set [18] and in [19] was “Active” throughout. Further, the inhibition entry in data set [2], in data set [4], in data set [8], in [12], in data set [13] and in [14] was “inactive” each time. In addition, the inhibition result in data set [22] and in [23] was “inactive” throughout. Further, the outcome in data set [5], in data set [15], in [20] and in data set [21] was Active. Moreover, the CC10 in data set [7] is > 10 µM. The outcome in data set [9], in data set [10], in [11] and in data set [17] was inactive.

Regarding `COc1ccc(/C=C/C(=O)O[C@H]2CC[C@@]3(C)C(=CC[C@]4(O)[C@@H]3C[C@@H](OC(=O)/C=C(\C)C(C)C)[C@@]3(C)[C@]4(O)CC[C@@]3(O)C(C)=O)C2)cc1`, the inhibition result in [1], in data set [3], in data set [6], in data set [16], in data set [18] and in data set [19] was “Active” in each case. The inhibition entry in data set [2], in data set [4], in [8], in [12], in [13] and in data set [14] was “inactive” throughout. The inhibition result in [22] and in data set [23] was “inactive” in each case. The outcome in [5], in data set [15], in [20] and in data set [21] was Active. Moreover, in [7], the CC10 is > 10 µM. Besides, the result in data set [9], in data set [10], in [11] and in [17] was inactive.
